Where two headings read alike, the source gives them in different places. One block for each compound: values may come before it.
Columns and labels:
[1] = molecular target: Menin-MLL binding (His-Menin1-615 / MLL1-172-FLAG) (Homo sapiens (Human), UniProt O00255); experiment: Test 1: inhibition of the Menin-MLL binding (HTRF)
Procedure: After the incubation, the signal was detected with RUBYstar (BMG LABTECH).

RS4; 11 cells = experiment: Test 2: inhibition of cell proliferation, RS4;11; format: cell-based; settings: for IC50: RS4;11 cells, 7 days, PrestoBlue cell viability; for cell proliferation inhibition activity: statement in words, RS4;11 and MOLM-13 cells
Procedure: (§1) RS4; 11 cells were obtained from American Type Culture Collection (ATCC). […] MOLM-13 cells were separately obtained from DSMZ (Deutsche Sammlung von Mikroorganismen und Zellkulturen GmbH).
(§2) The cells were plated to a 96-well plate in 2000 cells/well, each test compound was added thereto to adjust the final concentration of DMSO to 0.1% of DMSO, and the cells were cultured for 7 days. After the cultivation, the cell viability was calculated with PrestoBlue™ Cell Viability Reagent (Invitrogen, A13261).

MOLM-13 cells = experiment: Test 2: inhibition of cell proliferation, MOLM-13; format: cell-based; settings: 7 days, PrestoBlue cell viability
Procedure: as §1, §2

MEIS1 = experiment: Test 3: inhibition of mRNA transcription, MEIS1 in MV4;11 cells; format: cell-based; settings: for mRNA at 1 μM (% control) MEIS1: MV4;11 cells, 20 to 24 hours, relative to GAPDH; for mRNA transcription inhibition activity: statement in words, MEIS1 and HOXA9, MV4;11 cells
From the text: (§3) MV4; 11 cells were obtained from American Type Culture Collection (ATCC). […] The expression level of each obtained gene (MEIS1 and HOXA9) was fitted with the expression level of mRNA of GAPDH.

HOXA9 = experiment: Test 3: inhibition of mRNA transcription, HOXA9 in MV4;11 cells; format: cell-based; settings: 20 to 24 hours, relative to GAPDH
From the text: as §3

[2] = molecular target: hERG (human Ether-a-go-go Related Gene) (Homo sapiens (Human), UniProt Q12809); experiment: Test 4: hERG inhibition (QPatch HT, CHO cells stably expressing hERG); settings: for hERG/RS4; 11: hERG IC50 divided by RS4;11 proliferation IC50
Chain of hERG (human Ether-a-go-go Related Gene) (Q12809 whole entry): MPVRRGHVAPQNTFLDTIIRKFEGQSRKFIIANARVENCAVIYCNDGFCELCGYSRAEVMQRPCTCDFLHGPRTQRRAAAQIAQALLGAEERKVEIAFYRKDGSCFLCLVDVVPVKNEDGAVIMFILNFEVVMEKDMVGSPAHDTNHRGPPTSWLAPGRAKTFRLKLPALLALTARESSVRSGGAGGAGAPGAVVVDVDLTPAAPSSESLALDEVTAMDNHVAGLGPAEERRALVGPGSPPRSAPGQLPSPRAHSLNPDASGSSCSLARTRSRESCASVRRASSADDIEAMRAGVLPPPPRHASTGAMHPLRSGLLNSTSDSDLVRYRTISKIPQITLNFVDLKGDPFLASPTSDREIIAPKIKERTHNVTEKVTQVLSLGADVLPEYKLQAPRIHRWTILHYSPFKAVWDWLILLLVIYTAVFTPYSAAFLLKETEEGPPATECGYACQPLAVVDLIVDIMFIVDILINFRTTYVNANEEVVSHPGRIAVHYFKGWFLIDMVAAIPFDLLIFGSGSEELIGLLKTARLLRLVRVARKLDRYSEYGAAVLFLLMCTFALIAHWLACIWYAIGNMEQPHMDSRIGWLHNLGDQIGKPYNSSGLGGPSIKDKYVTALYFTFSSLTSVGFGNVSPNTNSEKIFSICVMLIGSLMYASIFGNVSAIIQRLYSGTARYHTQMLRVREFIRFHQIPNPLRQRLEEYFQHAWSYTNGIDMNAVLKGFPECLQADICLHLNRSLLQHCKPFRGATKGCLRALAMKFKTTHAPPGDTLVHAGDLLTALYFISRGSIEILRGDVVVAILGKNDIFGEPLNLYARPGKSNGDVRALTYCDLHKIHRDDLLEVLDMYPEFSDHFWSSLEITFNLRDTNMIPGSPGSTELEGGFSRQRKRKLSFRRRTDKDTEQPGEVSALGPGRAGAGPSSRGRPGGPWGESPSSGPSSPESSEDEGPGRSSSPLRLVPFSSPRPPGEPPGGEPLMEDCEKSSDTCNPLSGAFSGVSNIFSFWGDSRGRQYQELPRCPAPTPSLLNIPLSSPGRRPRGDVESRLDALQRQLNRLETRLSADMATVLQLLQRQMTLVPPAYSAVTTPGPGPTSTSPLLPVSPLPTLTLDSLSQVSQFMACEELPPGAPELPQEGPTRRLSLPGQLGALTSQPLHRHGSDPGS

[3] = read-out: hERG inhibition IC50, hERG current, CHO cells

Chain of Menin-MLL binding (His-Menin1-615 / MLL1-172-FLAG) (O00255 other isoform, or with tags, fused parts or gaps): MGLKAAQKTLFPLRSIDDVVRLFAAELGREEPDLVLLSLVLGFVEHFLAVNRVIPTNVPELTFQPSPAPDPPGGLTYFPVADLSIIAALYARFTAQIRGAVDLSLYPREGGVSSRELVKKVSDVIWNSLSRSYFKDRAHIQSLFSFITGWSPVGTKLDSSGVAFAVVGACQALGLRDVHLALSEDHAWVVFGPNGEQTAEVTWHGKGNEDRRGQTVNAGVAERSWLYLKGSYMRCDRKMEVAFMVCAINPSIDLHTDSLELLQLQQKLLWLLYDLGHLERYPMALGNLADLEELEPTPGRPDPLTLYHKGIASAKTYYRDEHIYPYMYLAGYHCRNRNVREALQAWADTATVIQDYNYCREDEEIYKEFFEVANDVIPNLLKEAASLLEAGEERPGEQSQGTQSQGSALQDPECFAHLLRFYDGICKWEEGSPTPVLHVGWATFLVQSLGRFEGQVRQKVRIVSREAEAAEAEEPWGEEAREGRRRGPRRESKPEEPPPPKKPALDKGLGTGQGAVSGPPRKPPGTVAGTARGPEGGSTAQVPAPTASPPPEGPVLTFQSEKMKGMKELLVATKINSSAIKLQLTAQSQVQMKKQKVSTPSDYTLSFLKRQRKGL

IC50 (MOLM-13 cells; Homo sapiens): 40 nM
Compound: CC(C)N(C(=O)c1cc(F)ccc1Oc1cncnc1N1CC2(CCN(C(=O)[C@H]3N[C@@H]4CC[C@H]3C4)CC2)C1)C(C)C [Example 16, 2-[(4-{7-[(1R,3S,4S)-2-azabicyclo[2.2.1]heptane-3-carbonyl]-2,7-diazaspiro[3.5]nonan-2-yl}pyrimidin-5-yl)oxy]-5-fluoro-N,N-di(propan-2-yl)benzamide]
IC50 [2]: > 100000 nM
hERG/RS4; 11 [2]: >3571

IC50 (RS4; 11 cells; Homo sapiens): < 10 nM
IC50 (MOLM-13 cells; Homo sapiens): < 10 nM
Compound: CC(C)N(C(=O)c1cc(F)ccc1Oc1cncnc1N1CC2(CCN(C(=O)[C@H]3N[C@H]4CC[C@@H]3[C@H](F)[C@@H]4CC3CC3)CC2)C1)C(C)C [Example 19, 2-[(4-{7-[(1S,3S,4S,5R,6R)-6-(cyclopropylmethyl)-5-fluoro-2-azabicyclo[2.2.2]octane-3-carbonyl]-2,7-diazaspiro[3.5]nonan-2-yl}pyrimidin-5-yl)oxy]-5-fluoro-N,N-di(propan-2-yl)benzamide]
IC50 [2]: 6900 nM
gap between RS4; 11 proliferation IC50 and hERG current IC50 [2]: more than 100 fold
hERG/RS4; 11 [2]: >690

IC50 (MOLM-13 cells; Homo sapiens): 40 nM
Compound: C=C1C[C@@H]2C[C@H]1[C@@H](C(=O)N1CCC3(CC1)CN(c1ncncc1Oc1ccc(F)cc1C(=O)N(C(C)C)C(C)C)C3)N2 [Example 18, 5-fluoro-2-[(4-{7-[(1S,3S,4R)-5-methylidene-2-azabicyclo[2.2.1]heptane-3-carbonyl]-2,7-diazaspiro[3.5]nonan-2-yl}pyrimidin-5-yl)oxy]-N,N-di(propan-2-yl)benzamide]
IC50 [2]: 46100 nM
hERG/RS4; 11 [2]: >2095

IC50 (RS4; 11 cells; Homo sapiens): 250 nM
IC50 (MOLM-13 cells; Homo sapiens): 250 nM
Compound: CC(C)N(C(=O)c1cc(F)ccc1Oc1cncnc1N1CC2(CCN(C(=O)[C@H]3N[C@H]4CC[C@@H]3C(=O)C4)CC2)C1)C(C)C [Example 12, 5-fluoro-2-[(4-{7-[(1S,3S,4S)-5-oxo-2-azabicyclo[2.2.2]octane-3-carbonyl]-2,7-diazaspiro[3.5]nonan-2-yl}pyrimidin-5-yl)oxy]-N,N-di(propan-2-yl)benzamide]
IC50 [2]: > 100000 nM
gap between RS4; 11 proliferation IC50 and hERG current IC50 [2]: more than 100 fold
hERG/RS4; 11 [2]: >400

IC50 (MOLM-13 cells; Homo sapiens): < 30 nM
Compound: [2H]C([2H])=C1C[C@@H]2CC[C@H]1[C@@H](C(=O)N1CCC3(CC1)CN(c1ncncc1Oc1ccc(F)cc1C(=O)N(C(C)C)C(C)C)C3)N2 [Example 20, 5-Fluoro-2-[(4-{7-[(1S,3S,4R)-5-(^2H2)methylidene-2-azabicyclo[2.2.2]octane-3-carbonyl]-2,7-diazaspiro[3.5]nonan-2-yl}pyrimidin-5-yl)oxy]-N,N-di(propan-2-yl)benzamide]

Second part, the compound before the results:

Compound: CC(C)N(C(=O)c1cc(F)ccc1Oc1cncnc1N1CC2(CCN(C(=O)[C@H]3N[C@H]4CC[C@@H]3C[C@@H]4CC3CC3)CC2)C1)C(C)C [Example 1, 2-[(4-{7-[(1S,3S,4R,6S)-6-(Cyclopropylmethyl)-2-azabicyclo[2.2.2]octane-3-carbonyl]-2,7-diazaspiro[3.5]nonan-2-yl}pyrimidin-5-yl)oxy]-5-fluoro-N,N-di(propan-2-yl)benzamide]
IC50 ([1]; Menin-MLL binding inhibition): 5.3 nM
Menin-MLL binding inhibition activity ([1]; statement in words on the table of Test 1): potent
IC50 (RS4; 11 cells; Homo sapiens): < 10 nM
cell proliferation inhibition activity (RS4; 11 cells): potent
IC50 (MOLM-13 cells; Homo sapiens): 20 nM
mRNA at 1 μM (% control) MEIS1 (MEIS1): 11.8 % control
mRNA transcription inhibition activity (MEIS1): showed the mRNA transcription inhibition activity
mRNA at 1 μM (% control) HOXA9 (HOXA9): 40.2 % control
IC50 [2]: 4000 nM
gap between RS4; 11 proliferation IC50 and hERG current IC50 [2]: more than 100 fold
hERG/RS4; 11 [2]: >400

Compound: C=C1C[C@H]2CC[C@@H]1N[C@@H]2C(=O)N1CCC2(CC1)CN(c1ncncc1Oc1ccc(F)cc1C(=O)N(C(C)C)C(C)C)C2 [Example 8, 5-fluoro-2-[(4-{7-[(1S,3S,4R)-6-methylidene-2-azabicyclo[2.2.2]octane-3-carbonyl]-2,7-diazaspiro[3.5]nonan-2-yl}pyrimidin-5-yl)oxy]-N,N-di(propan-2-yl)benzamide]
IC50 (RS4; 11 cells; Homo sapiens): 90 nM
IC50 (MOLM-13 cells; Homo sapiens): 110 nM
mRNA at 1 μM (% control) MEIS1 (MEIS1): 17.1 % control
mRNA at 1 μM (% control) HOXA9 (HOXA9): 40.1 % control
IC50 [2]: 12300 nM
gap between RS4; 11 proliferation IC50 and hERG current IC50 [2]: more than 100 fold
hERG/RS4; 11 [2]: 137

Compound: CC(C)N(C(=O)c1cc(F)ccc1Oc1cncnc1N1CC2(CCN(C(=O)[C@H]3N[C@H]4CC[C@@H]3[C@@H](F)[C@H]4CC3CC3)CC2)C1)C(C)C [Example 14, 2-[(4-{7-[(1S,3S,4S,5S,6S)-6-(cyclropylmethyl)-5-fluoro-2-azabicyclo[2.2.2]octane-3-carbonyl]-2,7-diazaspiro[3.5]nonan-2-yl}pyrimidin-5-yl)oxy]-5-fluoro-N,N-di(propan-2-yl)benzamide]
IC50 (RS4; 11 cells): 20 nM
cell proliferation inhibition activity (RS4; 11 cells): potent
IC50 (MOLM-13 cells): 40 nM
gap between RS4; 11 proliferation IC50 and hERG current IC50 [2]: more than 100 fold
IC50 [2, 3]: 11700 nM

Compound: C=C1C[C@@H]2CC[C@H]1[C@@H](C(=O)N1CCC3(CC1)CN(c1ncncc1Oc1ccc(F)cc1C(=O)N(C(C)C)C(C)C)C3)N2 [Example 6, 5-Fluoro-2-[(4-{7-[(1S,3S,4R)-5-methylidene-2-azabicyclo[2.2.2]octane-3-carbonyl]-2,7-diazaspiro[3.5]nonan-2-yl}pyrimidin-5-yl)oxy]-N,N-di(propan-2-yl)benzamide]
IC50 (RS4; 11 cells; Homo sapiens): 20 nM
IC50 (MOLM-13 cells; Homo sapiens): 30 nM
mRNA at 1 μM (% control) MEIS1 (MEIS1): 15.1 % control
mRNA transcription inhibition activity (MEIS1): showed the mRNA transcription inhibition activity
mRNA at 1 μM (% control) HOXA9 (HOXA9): 39.3 % control

Compound: CC(C)N(C(=O)c1cc(F)ccc1Oc1cncnc1N1CCC2(CCN(C(=O)[C@H]3N[C@H]4CC[C@@H]3CC4)C2)C1)C(C)C (stereo partly drawn) [Example 2, 2-[(4-{7-[(1R,3S,4R)-2-Azabicyclo[2.2.2]octane-3-carbonyl]-2,7-diazaspiro[4.4]nonan-2-yl}pyrimidin-5-yl)oxy]-5-fluoro-N,N-di(propan-2-yl)benzamide]
IC50 (RS4; 11 cells; Homo sapiens): 870 nM
IC50 (MOLM-13 cells; Homo sapiens): 810 nM
IC50 [2]: 11800 nM
hERG/RS4; 11 [2]: 13.6

Compound: C=C1C[C@@H]2CC[C@H]1[C@@H](C(=O)N1CC3(C1)CN(c1ncncc1Oc1ccc(F)cc1C(=O)N(C(C)C)C(C)C)C3)N2 [Example 7, 5-fluoro-2-[(4-{6-[(1S,3S,4R)-5-methylidene-2-azabicyclo[2.2.2]octane-3-carbonyl]-2,6-diazaspiro[3.3]heptan-2-yl}pyrimidin-5-yl)oxy]-N,N-di(propan-2-yl)benzamide]
mRNA transcription inhibition activity (MEIS1): showed the mRNA transcription inhibition activity

Compound: CC(C)N(C(=O)c1cc(F)ccc1Oc1cncnc1N1CC2(CN(C(=O)[C@H]3N[C@@H]4CC[C@H]3C4)C2)C1)C(C)C [Example 15, 2-[(4-{6-[(1R,3S,4S)-2-azabicyclo[2.2.1]heptane-3-carbonyl]-2,6-diazaspiro[3.3]heptan-2-yl}pyrimidin-5-yl)oxy]-5-fluoro-N,N-di(propan-2-yl)benzamide]
IC50 [2]: > 100000 nM
hERG/RS4; 11 [2]: >6250

Compound: C=C1C[C@H]2CC[C@@H]1N[C@@H]2C(=O)N1CC2(C1)CN(c1ncncc1Oc1ccc(F)cc1C(=O)N(C(C)C)C(C)C)C2 [Example 9, 5-fluoro-2-[(4-{6-[(1S,3S,4R)-6-methylidene-2-azabicyclo[2.2.2]octane-3-carbonyl]-2,6-diazaspiro[3.3]heptan-2-yl}pyrimidin-5-yl)oxy]-N,N-di(propan-2-yl)benzamide]
IC50 (RS4; 11 cells; Homo sapiens): 80 nM
IC50 (MOLM-13 cells; Homo sapiens): 80 nM
mRNA at 1 μM (% control) MEIS1 (MEIS1): 17.0 % control
mRNA at 1 μM (% control) HOXA9 (HOXA9): 41.2 % control
IC50 [2]: > 10000 nM
gap between RS4; 11 proliferation IC50 and hERG current IC50 [2]: more than 100 fold
hERG/RS4; 11 [2]: >125

Compound: CC(C)N(C(=O)c1cc(F)ccc1Oc1cncnc1N1CC2(CN(C(=O)[C@H]3NC4CCC3CC4)C2)C1)C(C)C [Example 11, 2-[(4-{6-[(1R,3S,4R)-2-azabicyclo[2.2.2]octane-3-carbonyl]-2,6-diazaspiro[3.3]heptan-2-yl}pyrimidin-5-yl)oxy]-5-fluoro-N,N-di(propan-2-yl)benzamide]
mRNA at 1 μM (% control) MEIS1 (MEIS1): 13.1 % control
mRNA transcription inhibition activity (MEIS1): showed the mRNA transcription inhibition activity
mRNA at 1 μM (% control) HOXA9 (HOXA9): 36.5 % control
hERG/RS4; 11 [2]: >500
IC50 [2, 3]: > 10000 nM
